In brackets after ≈: the same amount, converted by molar mass. Like-named read-outs stand apart in the source and are kept apart here. Where a SMILES comes first, the peptide text is derived from it.
Columns and labels:
[1] = tested on: S. aureus; assay: microbe, parasite or virus in culture; format: cell-based, Staphylococcus aureus
Procedure, shortened: (§1)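 Peptides were serially diluted twofold in Mueller-Hinton medium and combined 1:1 with bacterial suspensions prepared at 2×10^6 CFU. Readout was the minimal inhibitory concentration, i.e. the lowest concentration with no growth.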

[2] = tested on: E. coli; assay: MIC of antibiotic during combined treatment with antimicrobial peptide; format: cell-based, Escherichia coli; conditions: for Antibiotic MIC, Erythromycin / Antibiotic MIC, Linezolid / Antibiotic MIC, Vancomycin: E. coli
Procedure, shortened: (§2)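 Antibiotic diluted in MH medium, dispensed per well with peptide; setup repeated with roles reversed; MIC read per combination.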

[3] = tested on: MDREC 1229; assay: as above; format: cell-based, Escherichia coli
Procedure, shortened: (§3)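 Antibiotic MIC came from antibiotic dilutions added to bacteria (2×10^6 CFU/ml, MH medium) already combined with peptide serially diluted 2:1 from its own MIC. Swapping the roles of the two agents gave the peptide MIC.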

[4] = tested on: E. coli; assay: microbe, parasite or virus in culture; format: cell-based, Escherichia coli
Procedure, shortened: as §1

[5] = tested on: MDREC 1229; assay: microbe, parasite or virus in culture; format: cell-based, Escherichia coli
Procedure, shortened: as §1

[6] = tested on: MDRAB 12036; format: cell-based, Acinetobacter baumannii
Procedure, shortened: as §1

[7] = tested on: A. baumannii; assay: MIC of antibiotic during combined treatment with antimicrobial peptide; format: cell-based, Acinetobacter baumannii; conditions: for Antibiotic MIC, Erythromycin / Antibiotic MIC, Linezolid / Antibiotic MIC, Vancomycin: A. baumannii
Procedure, shortened: as §2

[8] = tested on: MDRAB 12035; assay: MIC of antimicrobial peptide during combined treatment with antibiotic; format: cell-based, Acinetobacter baumannii
Procedure, shortened: as §3

[9] = tested on: A. baumannii; assay: as above; format: cell-based, Acinetobacter baumannii
Procedure, shortened: as §3

[10] = tested on: B. subtilis; assay: microbe, parasite or virus in culture; format: cell-based, Bacillus subtilis
Procedure, shortened: as §1

[11] = tested on: MDRST 8007; assay: Minimal inhibitory concentration (MIC), single agent; format: cell-based, Salmonella typhimurium; conditions: agent alone
Procedure, shortened: as §1

[12] = tested on: E. coli; format: cell-based, Escherichia coli; conditions: E. coli
Procedure, shortened: as §3

[13] = tested on: MDREC 1229; format: cell-based, Escherichia coli
Procedure, shortened: as §3

[14] = peptide treatment concentration 1 μg/ml
[15] = peptide treatment concentration 2 μg/ml
[16] = peptide treatment concentration 4 μg/ml
[17] = peptide treatment concentration 6 μg/ml
[18] = peptide treatment concentration 8 μg/ml
[19] = peptide treatment concentration 16 μg/ml
[20] = peptide treatment concentration 32 μg/ml
[21] = peptide treatment concentration 64 μg/ml
[22] = combined with peptide at 1 μg/ml
[23] = combined with peptide at 2 μg/ml
[24] = combined with peptide at 4 μg/ml
[25] = combined with peptide at 6 μg/ml
[26] = combined with peptide at 8 μg/ml
[27] = combined with peptide at 16 μg/ml
[28] = combined with peptide at 32 μg/ml
[29] = combined with peptide at 64 μg/ml
[30] = erythromycin 4 μg/ml (Conc./MIC 1/8)
[31] = erythromycin 8 μg/ml (Conc./MIC 1/4)
[32] = erythromycin 16 μg/ml (Conc./MIC 1/2)
[33] = erythromycin 32 μg/ml (Conc./MIC 1)
[34] = vancomycin 512 μg/ml (Conc./MIC 1/2)
[35] = vancomycin 1024 μg/ml (Conc./MIC 1)
[36] = with Erythromycin […] (Conc./MIC 1)

## CC[C@H](C)[C@H](NC(=O)[C@H](CCCCN)NC(=O)[C@H](Cc1c[nH]c2ccccc12)NC(=O)[C@@H](N)CCCNC(=N)N)C(=O)N[C@@H](Cc1ccccc1)C(=O)N[C@@H](CCCCN)C(=O)N[C@@H](CCCCN)C(=O)N[C@H](C(=O)N1CCC[C@H]1C(=O)N[C@@H](CCCCN)C(=O)N[C@@H](CC(C)C)C(=O)N[C@@H](CC(C)C)C(=O)N[C@@H](Cc1c[nH]cn1)C(=O)N[C@@H](CO)C(=O)N[C@@H](C)C(=O)N[C@@H](CCCCN)C(=O)N[C@@H](CCCCN)C(=O)N[C@@H](Cc1c[nH]c2ccccc12)C(N)=O)[C@@H](C)CC [PapMA-9, RWK IFK KIP KLL HSA KKW-NH2] (H-RWKIFKKIPKLLHSAKKW-NH2; N-terminus assumed)
[1]
  Minimal inhibitory concentration MIC: >128 µg/mL
[2]; E. coli and MDREC1229
  Synergistic effect of antibacterial activity with existing antibiotics compared with PapMA-1: higher level than the PapMA-1 peptide
[2]; erythromycin combined with peptide at 1 μg/ml
  Antibiotic MIC, Erythromycin: 128 µg/mL
[2]; erythromycin combined with peptide at 2 μg/ml
  Antibiotic MIC, Erythromycin: 64 µg/mL
[2]; erythromycin combined with peptide at 4 μg/ml
  Antibiotic MIC, Erythromycin: 8 µg/mL
[2]; erythromycin combined with peptide at 6 μg/ml
  Antibiotic MIC, Erythromycin: 2 µg/mL
[2]; erythromycin combined with peptide at 8 μg/ml
  Antibiotic MIC, Erythromycin: 0.5 µg/mL
[2]; erythromycin combined with peptide at 16 μg/ml
  Antibiotic MIC, Erythromycin: 0.125 µg/mL
[2]; erythromycin combined with peptide at 32 μg/ml
  Antibiotic MIC, Erythromycin: 0 µg/mL
[2]; erythromycin combined with peptide at 64 μg/ml
  Antibiotic MIC, Erythromycin: 0 µg/mL
[2]; linezolid combined with peptide at 1 μg/ml
  Antibiotic MIC, Linezolid: >128 µg/mL
[2]; linezolid combined with peptide at 2 μg/ml
  Antibiotic MIC, Linezolid: >128 µg/mL
[2]; linezolid combined with peptide at 4 μg/ml
  Antibiotic MIC, Linezolid: 16 µg/mL
[2]; linezolid combined with peptide at 6 μg/ml
  Antibiotic MIC, Linezolid: 8 µg/mL
[2]; linezolid combined with peptide at 8 μg/ml
  Antibiotic MIC, Linezolid: 4 µg/mL
[2]; linezolid combined with peptide at 16 μg/ml
  Antibiotic MIC, Linezolid: 2 µg/mL
[2]; linezolid combined with peptide at 32 μg/ml
  Antibiotic MIC, Linezolid: 0 µg/mL
[2]; linezolid combined with peptide at 64 μg/ml
  Antibiotic MIC, Linezolid: 0 µg/mL
[2]; vancomycin combined with peptide at 1 μg/ml
  Antibiotic MIC, Vancomycin: >128 µg/mL
[2]; vancomycin combined with peptide at 2 μg/ml
  Antibiotic MIC, Vancomycin: >128 µg/mL
[2]; vancomycin combined with peptide at 4 μg/ml
  Antibiotic MIC, Vancomycin: 64 µg/mL
[2]; vancomycin combined with peptide at 6 μg/ml
  Antibiotic MIC, Vancomycin: 16 µg/mL
[2]; vancomycin combined with peptide at 8 μg/ml
  Antibiotic MIC, Vancomycin: 8 µg/mL
[2]; vancomycin combined with peptide at 16 μg/ml
  Antibiotic MIC, Vancomycin: 2 µg/mL
[2]; vancomycin combined with peptide at 32 μg/ml
  Antibiotic MIC, Vancomycin: 0 µg/mL
[2]; vancomycin combined with peptide at 64 μg/ml
  Antibiotic MIC, Vancomycin: 0 µg/mL
[3]; [14]
  Antibiotic MIC, Erythromycin: 64 µg/mL
  Antibiotic MIC, Linezolid: 128 µg/mL
  Antibiotic MIC, Vancomycin: >128 µg/mL
[3]; [15]
  Antibiotic MIC, Erythromycin: 64 µg/mL
  Antibiotic MIC, Linezolid: 64 µg/mL
  Antibiotic MIC, Vancomycin: >128 µg/mL
[3]; [16]
  Antibiotic MIC, Erythromycin: 8 µg/mL
  Antibiotic MIC, Linezolid: 32 µg/mL
  Antibiotic MIC, Vancomycin: 128 µg/mL
[3]; [17]
  Antibiotic MIC, Erythromycin: 2 µg/mL
  Antibiotic MIC, Linezolid: 16 µg/mL
  Antibiotic MIC, Vancomycin: 32 µg/mL
[3]; [18]
  Antibiotic MIC, Erythromycin: 1 µg/mL
  Antibiotic MIC, Linezolid: 8 µg/mL
  Antibiotic MIC, Vancomycin: 8 µg/mL
[3]; [19]
  Antibiotic MIC, Erythromycin: 0.5 µg/mL
  Antibiotic MIC, Linezolid: 4 µg/mL
  Antibiotic MIC, Vancomycin: 4 µg/mL
[3]; [20]
  Antibiotic MIC, Erythromycin: 0.125 µg/mL
  Antibiotic MIC, Linezolid: 2 µg/mL
  Antibiotic MIC, Vancomycin: 2 µg/mL
[3]; [21]
  Antibiotic MIC, Erythromycin: 0 µg/mL
  Antibiotic MIC, Linezolid: 0 µg/mL
  Antibiotic MIC, Vancomycin: 0 µg/mL
[4]; 16 h
  Minimal inhibitory concentration MIC: 32 µg/mL (≈ 13.9 µM)
[4]; E. coli
  Antibacterial activity relative to PapMA-1: at least twice as high
[5]
  Minimal inhibitory concentration MIC: 64 µg/mL (≈ 27.7 µM)
[6]
  Minimal inhibitory concentration MIC: 64 µg/mL (≈ 27.7 µM)
[7]; A. baumannii and MDRAB 12035
  Synergistic effect of antibacterial activity with existing antibiotics compared with PapMA-1: higher level than the PapMA-1 peptide
[7]; [22]
  Antibiotic MIC, Erythromycin: 32 µg/mL
  Antibiotic MIC, Linezolid: >128 µg/mL
  Antibiotic MIC, Vancomycin: >128 µg/mL
[7]; [23]
  Antibiotic MIC, Erythromycin: 8 µg/mL
  Antibiotic MIC, Linezolid: 128 µg/mL
  Antibiotic MIC, Vancomycin: 128 µg/mL
[7]; [24]
  Antibiotic MIC, Erythromycin: 4 µg/mL
  Antibiotic MIC, Linezolid: 8 µg/mL
  Antibiotic MIC, Vancomycin: 32 µg/mL
[7]; [25]
  Antibiotic MIC, Erythromycin: 2 µg/mL
  Antibiotic MIC, Linezolid: 8 µg/mL
  Antibiotic MIC, Vancomycin: 16 µg/mL
[7]; [26]
  Antibiotic MIC, Erythromycin: 0.25 µg/mL
  Antibiotic MIC, Linezolid: 2 µg/mL
  Antibiotic MIC, Vancomycin: 8 µg/mL
[7]; [27]
  Antibiotic MIC, Erythromycin: 0.125 µg/mL
  Antibiotic MIC, Linezolid: 0.5 µg/mL
  Antibiotic MIC, Vancomycin: 2 µg/mL
[7]; [28]
  Antibiotic MIC, Erythromycin: 0 µg/mL
  Antibiotic MIC, Linezolid: 0 µg/mL
  Antibiotic MIC, Vancomycin: 0 µg/mL
[7]; [29]
  Antibiotic MIC, Erythromycin: 0 µg/mL
  Antibiotic MIC, Linezolid: 0 µg/mL
  Antibiotic MIC, Vancomycin: 0 µg/mL
[8]; [30]
  Peptide MIC during treatment with erythromycin: 4 µg/mL
[8]; [31]
  Peptide MIC during treatment with erythromycin: 4 µg/mL
[8]; [32]
  Peptide MIC during treatment with erythromycin: 1 µg/mL
[8]; [33]
  Peptide MIC during treatment with erythromycin: 0 µg/mL
[8]; linezolid 64 μg/ml (Conc./MIC 1/8)
  Peptide MIC during treatment with linezolid: 2 µg/mL
[8]; linezolid 512 μg/ml (Conc./MIC 1)
  Peptide MIC during treatment with linezolid: 0 µg/mL
[8]; linezolid […] (Conc./MIC 1/2)
  Peptide MIC during treatment with linezolid: 1 µg/mL
[8]; linezolid […] (Conc./MIC 1/4)
  Peptide MIC during treatment with linezolid: 2 µg/mL
[8]; [34]
  Peptide MIC during treatment with vancomycin: 1 µg/mL
[8]; [35]
  Peptide MIC during treatment with vancomycin: 0.25 µg/mL
[8]; vancomycin […] (Conc./MIC 1/4)
  Peptide MIC during treatment with vancomycin: 1 µg/mL
[8]; vancomycin […] (Conc./MIC 1/8)
  Peptide MIC during treatment with vancomycin: 2 µg/mL
[9]; [30]
  Peptide MIC during treatment with antibiotic: 4 µg/mL
[9]; [31]
  Peptide MIC during treatment with antibiotic: 2 µg/mL
[9]; [32]
  Peptide MIC during treatment with antibiotic: 2 µg/mL
[9]; [33]
  Peptide MIC during treatment with antibiotic: 0 µg/mL
[9]; linezolid 32 μg/ml (Conc./MIC 1/8)
  Peptide MIC during treatment with antibiotic: 4 µg/mL
[9]; linezolid 64 μg/ml (Conc./MIC 1/4)
  Peptide MIC during treatment with antibiotic: 4 µg/mL
[9]; linezolid […] (Conc./MIC 1)
  Peptide MIC during treatment with antibiotic: 0 µg/mL
[9]; linezolid […] (Conc./MIC 1/2)
  Peptide MIC during treatment with antibiotic: 2 µg/mL
[9]; [34]
  Peptide MIC during treatment with antibiotic: 0.25 µg/mL
[9]; [35]
  Peptide MIC during treatment with antibiotic: 0 µg/mL
[9]; vancomycin […] (Conc./MIC 1/4)
  Peptide MIC during treatment with antibiotic: 0.5 µg/mL
[9]; vancomycin […] (Conc./MIC 1/8)
  Peptide MIC during treatment with antibiotic: 2 µg/mL
[10]
  Minimal inhibitory concentration MIC: >128 µg/mL
[11]
  Minimal inhibitory concentration MIC: 64 µg/mL (≈ 27.7 µM)
[12]; [36]
  Peptide MIC: 0 µg/mL
[12]; with Linezolid […] (Conc./MIC 1)
  Peptide MIC: 0 µg/mL
[12]; with Vancomycin 1024 μg/ml (Conc./MIC 1)
  Peptide MIC: 0 µg/mL
[13]; [36]
  Peptide MIC: 0 µg/mL
[13]; with Linezolid 512 μg/ml (Conc./MIC 1)
  Peptide MIC: 0 µg/mL

— patent publication US11214594B2, “Antimicrobial peptide having synergistic antibacterial effect with antibiotics on multidrug resistant bacteria, and use thereof” (priority 2016, dated 2022)
